Experimental data from patent US20240082223A1, “DIHYDROFUROPYRIDINE DERIVATIVES AS RHO- KINASE INHIBITORS” (CHIESI FARMACEUTICI S.P.A., priority 2020, published 2024).

Assays:
Format in all cases: biochemical
[1] = target: T1, ROCK1 (Homo sapiens, UniProt Q13464); experiment: In vitro inhibitory activity assay ROCK1 (Method B, ADP-Glo, 200 μM ATP); conditions: ATP 200 μM, read-out: Method B ROCK 1 (Ki)
Experimental: (§1) In Vitro Inhibitory Activity Assay Description ROCK1 and ROCK2
(§2) The effectiveness of compounds of the present invention to inhibit Rho kinase activity can be determined in a 10 μl assay containing 40 mM Tris pH7.5, 20 mM MgCl2 0.1 mg/mL BSA, 50 μM DTT and 2.5 μM peptide substrate (Myelin Basic Protein) using an ADP-Glo kit (Promega). Compounds were dissolved in DMSO such that the final concentration of DMSO was 1% in the assay. All reactions/incubations are performed at 25° C. Compound (2 μL) and either Rho kinase 1 or 2 (4 μl) were mixed and incubated for 30 min. Reactions were initiated by addition of ATP (4 μL) such that the final concentration of ATP in the assay was 200 μM. After a 1 hour incubation 10111 of ADP-Glo Reagent was added and after a further 45 minute incubation 20 μL of Kinase Detection Buffer was added and the mixture incubated for a further 30 minutes. The luminescent signal was measured on a luminometer. […] Compounds were tested in dose-response format and the inhibition of kinase activity was calculated at each concentration of compound. To determine the IC50 (concentration of compound required to inhibit 50% of the enzyme activity) data were fit to a plot of % inhibition vs Log10 compound concentration using a sigmoidal fit with a variable slope and fixing the maximum to 100% and the minimum to 0%. To determine the Ki values the Cheng-Prusoff equation was utilized (Ki=IC50/(1[S]/Km).

[2] = target: T2, ROCK2 (Homo sapiens, UniProt O75116); experiment: In vitro inhibitory activity assay ROCK2 (Method B, ADP-Glo, 200 μM ATP); conditions: ATP 200 μM, read-out: Method B ROCK 2 (Ki)
T2 sequence (O75116 whole entry): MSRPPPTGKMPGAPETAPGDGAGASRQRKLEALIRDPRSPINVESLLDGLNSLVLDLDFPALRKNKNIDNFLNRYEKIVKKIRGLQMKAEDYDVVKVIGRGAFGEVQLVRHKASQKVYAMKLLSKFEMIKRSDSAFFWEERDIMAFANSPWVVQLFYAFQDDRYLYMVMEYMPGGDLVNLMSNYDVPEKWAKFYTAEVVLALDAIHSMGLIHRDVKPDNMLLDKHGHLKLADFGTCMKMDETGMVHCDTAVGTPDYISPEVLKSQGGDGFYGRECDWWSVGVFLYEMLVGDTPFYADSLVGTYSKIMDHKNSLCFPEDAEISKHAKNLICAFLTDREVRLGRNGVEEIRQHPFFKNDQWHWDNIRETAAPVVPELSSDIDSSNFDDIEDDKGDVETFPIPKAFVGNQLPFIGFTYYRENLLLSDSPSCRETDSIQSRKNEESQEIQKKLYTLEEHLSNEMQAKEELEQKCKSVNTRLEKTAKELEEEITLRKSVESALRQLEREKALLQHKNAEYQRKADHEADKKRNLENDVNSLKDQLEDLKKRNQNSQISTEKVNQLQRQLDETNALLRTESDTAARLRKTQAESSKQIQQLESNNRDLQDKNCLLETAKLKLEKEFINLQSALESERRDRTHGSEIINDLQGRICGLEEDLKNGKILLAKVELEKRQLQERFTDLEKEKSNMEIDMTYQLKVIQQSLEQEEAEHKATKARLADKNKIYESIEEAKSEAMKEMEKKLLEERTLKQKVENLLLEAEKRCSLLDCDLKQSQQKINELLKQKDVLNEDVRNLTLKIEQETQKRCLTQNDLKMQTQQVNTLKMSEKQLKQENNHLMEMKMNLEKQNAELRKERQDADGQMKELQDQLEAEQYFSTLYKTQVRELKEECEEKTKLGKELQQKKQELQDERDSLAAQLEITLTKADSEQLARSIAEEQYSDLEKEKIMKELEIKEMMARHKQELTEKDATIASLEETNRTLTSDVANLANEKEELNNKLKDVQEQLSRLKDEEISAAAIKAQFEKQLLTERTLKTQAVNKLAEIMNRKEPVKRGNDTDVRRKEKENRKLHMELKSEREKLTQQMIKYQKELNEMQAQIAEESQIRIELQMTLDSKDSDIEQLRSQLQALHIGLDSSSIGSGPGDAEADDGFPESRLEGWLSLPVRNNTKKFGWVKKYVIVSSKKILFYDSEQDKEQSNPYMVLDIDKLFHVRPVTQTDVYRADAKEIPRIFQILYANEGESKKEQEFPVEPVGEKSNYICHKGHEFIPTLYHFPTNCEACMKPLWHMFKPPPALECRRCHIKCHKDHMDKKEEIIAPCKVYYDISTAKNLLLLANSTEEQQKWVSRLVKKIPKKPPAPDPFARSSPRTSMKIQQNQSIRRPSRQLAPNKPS
Experimental: as §1, §2

[3] = target: T2, ROCK2; experiment: In vitro inhibitory activity assay ROCK2 (Method A, ADP-Glo, 10 μM ATP); conditions: ATP 10 μM, read-out: Method A ROCK 2 (Ki)
Experimental: (§3) In vitro inhibitory activity assay description ROCK1 and ROCK2
as §2, with “(2 uL)” for “(2 μL)”, “was 10” for “was 200”, “incubation […]” for “incubation 10111”, “45 minutes” for “45 minute”, “20 uL” for “20 μL”, “utilized (Ki=IC50/(1+[S]/Km).” for “utilized (Ki=IC50/(1[S]/Km).”

[4] = target: T1, ROCK1; experiment: In vitro inhibitory activity assay ROCK1 (Method A, ADP-Glo, 10 μM ATP); conditions: ATP 10 μM, read-out: Method A ROCK 1 (Ki)
Experimental: as §3
as §2, with “(2 uL)” for “(2 μL)”, “was 10” for “was 200”, “incubation […]” for “incubation 10111”, “45 minutes” for “45 minute”, “20 uL” for “20 μL”, “utilized (Ki=IC50/(1+[S]/Km).” for “utilized (Ki=IC50/(1[S]/Km).”

T1 sequence (Q13464 whole entry): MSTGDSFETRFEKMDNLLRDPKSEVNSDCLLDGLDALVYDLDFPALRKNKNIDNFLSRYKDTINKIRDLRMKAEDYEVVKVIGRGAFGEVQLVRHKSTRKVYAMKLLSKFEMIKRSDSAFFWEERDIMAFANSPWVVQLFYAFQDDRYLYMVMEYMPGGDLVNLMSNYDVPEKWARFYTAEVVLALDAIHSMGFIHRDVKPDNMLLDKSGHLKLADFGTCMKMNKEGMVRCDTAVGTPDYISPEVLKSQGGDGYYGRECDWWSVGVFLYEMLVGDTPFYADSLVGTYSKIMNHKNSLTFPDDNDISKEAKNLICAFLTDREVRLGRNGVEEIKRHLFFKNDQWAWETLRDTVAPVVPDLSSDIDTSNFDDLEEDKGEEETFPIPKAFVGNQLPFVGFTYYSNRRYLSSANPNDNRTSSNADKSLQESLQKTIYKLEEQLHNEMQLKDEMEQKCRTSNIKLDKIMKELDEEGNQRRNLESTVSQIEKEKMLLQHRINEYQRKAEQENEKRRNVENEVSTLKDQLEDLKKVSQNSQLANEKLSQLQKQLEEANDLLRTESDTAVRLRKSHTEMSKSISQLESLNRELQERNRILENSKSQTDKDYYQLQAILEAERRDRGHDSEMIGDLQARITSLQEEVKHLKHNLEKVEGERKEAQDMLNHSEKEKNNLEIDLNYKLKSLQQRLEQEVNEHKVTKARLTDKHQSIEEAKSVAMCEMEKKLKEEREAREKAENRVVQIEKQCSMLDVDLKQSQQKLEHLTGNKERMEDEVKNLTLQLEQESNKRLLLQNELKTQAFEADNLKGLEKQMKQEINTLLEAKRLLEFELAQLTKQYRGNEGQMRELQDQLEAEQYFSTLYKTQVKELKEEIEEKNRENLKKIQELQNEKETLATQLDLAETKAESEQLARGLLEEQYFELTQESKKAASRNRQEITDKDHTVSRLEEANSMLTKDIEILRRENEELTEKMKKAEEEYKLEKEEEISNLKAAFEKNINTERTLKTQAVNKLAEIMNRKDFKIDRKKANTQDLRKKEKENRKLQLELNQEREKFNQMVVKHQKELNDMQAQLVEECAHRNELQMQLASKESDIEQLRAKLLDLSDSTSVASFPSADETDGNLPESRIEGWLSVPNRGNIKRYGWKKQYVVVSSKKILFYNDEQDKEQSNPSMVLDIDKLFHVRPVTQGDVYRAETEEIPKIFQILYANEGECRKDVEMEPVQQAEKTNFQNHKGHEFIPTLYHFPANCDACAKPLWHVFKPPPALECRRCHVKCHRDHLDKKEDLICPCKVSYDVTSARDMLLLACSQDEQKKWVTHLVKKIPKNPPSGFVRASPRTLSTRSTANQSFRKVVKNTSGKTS

Compound | Ki [1] | Ki [2] | Ki [3] | Ki [4]
O=C(NCc1ccccn1)c1cccc(CNc2ncc(-c3cn[nH]c3)c3c2CCO3)c1 [Example 4, 3-(((7-(1H-pyrazol-4-yl)-2,3-dihydrofuro[3,2-c]pyridin-4-yl)amino)methyl)-N-(pyridin-2-ylmethyl)benzamide] | 3 to 30 nM | 3 to 30 nM |  | 
O=C(NCc1cncnc1)c1cccc(CNc2ncc(-c3cn[nH]c3)c3c2CCO3)c1 [Example 9, 3-(((7-(1H-pyrazol-4-yl)-2,3-dihydrofuro[3,2-c]pyridin-4-yl)amino)methyl)-N-(pyrimidin-5-ylmethyl)benzamide] | 3 to 30 nM | 3 to 30 nM |  | 
O=C(NCc1ccon1)c1cccc(CNc2ncc(-c3cn[nH]c3)c3c2CCO3)c1 [Example 13, 3-(((7-(1H-pyrazol-4-yl)-2,3-dihydrofuro[3,2-c]pyridin-4-yl)amino)methyl)-N-(isoxazol-3-ylmethyl)benzamide] | 3 to 30 nM | ≤ 3 nM |  | 
COCCNC(=O)c1cccc(CNc2ncc(-c3cn[nH]c3)c3c2CCO3)c1 [Example 7, 3-(((7-(1H-pyrazol-4-yl)-2,3-dihydrofuro[3,2-c]pyridin-4-yl)amino)methyl)-N-(2-methoxyethyl)benzamide] | 3 to 30 nM | ≤ 3 nM |  | 
O=C(NCc1cscn1)c1cccc(CNc2ncc(-c3cn[nH]c3)c3c2CCO3)c1 [Example 14, 3-(((7-(1H-pyrazol-4-yl)-2,3-dihydrofuro[3,2-c]pyridin-4-yl)amino)methyl)-N-(thiazol-4-ylmethyl)benzamide] | ≤ 3 nM | ≤ 3 nM |  | 

Continued, values first:

Ki [1] | Ki [2] | Ki [3] | Ki [4] | Compound
> 30 nM | > 30 nM |  |  | CNC(=O)c1cccc(CNc2ncc(-c3cncs3)c3c2CCO3)c1 [Example A, N-Methyl-3-(((7-(thiazol-5-yl)-2,3-dihydrofuropyridin-4-yl)amino)methyl)benzamide, reference compound]
≤ 3 nM | ≤ 3 nM | ≤ 3 nM | ≤ 3 nM | CN1CCc2cc(C(=O)Nc3cccc(CNc4ncc(-c5cn[nH]c5)c5c4CCO5)c3)ccc2C1 [Example 45, N-(3-(((7-(1H-pyrazol-4-yl)-2,3-dihydrofuro[3,2-c]pyridin-4-yl)amino)methyl)phenyl)-2-methyl-1,2,3,4-tetrahydroisoquinoline-6-carboxamide]
≤ 3 nM | ≤ 3 nM | ≤ 3 nM | ≤ 3 nM | CN(C)CCn1ncc2cc(C(=O)Nc3cccc(CNc4ncc(-c5cn[nH]c5)c5c4CCO5)c3)ccc21 [Example 43, N-(3-(((7-(1H-pyrazol-4-yl)-2,3-dihydrofuro[3,2-c]pyridin-4-yl)amino)methyl)phenyl)-1-(2-(dimethylamino)ethyl)-1H-indazole-5-carboxamide]
≤ 3 nM | ≤ 3 nM | ≤ 3 nM | ≤ 3 nM | CN1CCC(n2ncc3cc(C(=O)Nc4cccc(CNc5ncc(-c6cn[nH]c6)c6c5CCO6)c4)ccc32)CC1 [Example 44, N-(3-(((7-(1H-pyrazol-4-yl)-2,3-dihydrofuro[3,2-c]pyridin-4-yl)amino)methyl)phenyl)-1-(1-methylpiperidin-4-yl)-1H-indazole-5-carboxamide]
 |  | ≤ 3 nM | ≤ 3 nM | O=C(NC1CCN(CCc2ccccc2)CC1)c1cccc(CNc2ncc(-c3cn[nH]c3)c3c2CCO3)c1 [Example 26, 3-(((7-(1H-pyrazol-4-yl)-2,3-dihydrofuro[3,2-c]pyridin-4-yl)amino)methyl)-N-(1-phenethylpiperidin-4-yl)benzamide]
 |  | ≤ 3 nM | ≤ 3 nM | CN(C)Cc1cccc(NC(=O)c2cccc(CNc3ncc(-c4cn[nH]c4)c4c3CCO4)c2)c1 [Example 18, 3-(((7-(1H-pyrazol-4-yl)-2,3-dihydrofuro[3,2-c]pyridin-4-yl)amino)methyl)-N-(3-((dimethylamino)methyl)phenyl)benzamide]
> 30 nM | 3 to 30 nM |  |  | CNC(=O)c1cccc(CNc2ncc(-c3cnco3)c3c2CCO3)c1 [Example B, N-Methyl-3-(((7-(oxazol-5-yl)-2,3-dihydrofuro[3,2-c]pyridin-4-yl)amino)methyl)benzamide, reference compound]
